What all share (format): cell-based
Data set [1] deals with ACTA2 and CTGF in human conjunctival fibroblasts. The data set is described as follows: MRTF/SRF target gene expression by qRT-PCR (human). The settings on record: 24 hours, 10% FCS. Here is the method:
Human or rabbit conjunctival fibroblasts were plated at 1 × 10^5 cells/well in 6-well plates (Falcon, Fisher Scientific). The next day, the fibroblasts were treated with 5, 10, 25, or 50 μM of CCG-222740 or CCG-203971 or 0.1% DMSO control in DMEM +10% FCS for 24 hours. The fibroblasts were then lysed for RNA extraction using the Sigma RNA isolation kit (Sigma-Aldrich), according to the manufacturer’s instructions. Reverse transcription was carried out using the Transcriptor First Strand cDNA Synthesis Kit (Roche), according to the manufacturer’s instructions. qRT-PCR reactions were performed using SYBR green reagents (Life Technologies) on an HT7900 Fast Real-Time PCR system (Applied Biosystems). The human exonic primer sequences were: ACTA2, 5′-[…]-3′, 3′-[…]-5′; CTGF, 5′-CAGAGTGGAGCGCCTGTT-3′, 3′-CTGCAGGAGGCGTTGTCA-5′; GAPDH, 5′-[…]-3′, 3′-[…]-5′. The rabbit exonic primer sequences were ACTA2, 5′- […]-3′, 3′- […]-5′; GAPDH, 5′-CGAGACACGATGGTGAAGG-3′, 3′-[…]-5′. All mRNA values were normalised relative to that of GAPDH. Each experiment was carried out in triplicates for each treatment group and the experiment was repeated three times.

For data set [2], the system named is human conjunctival fibroblasts. The data set is described as follows: cell viability assay (CellTiter 96 Aqueous one solution). To be noted: for cell viability: 24 hours. The procedure:
Human conjunctival fibroblasts were plated at 6.25 × 10^3 cells/well in 96-well plates (Falcon, Fisher Scientific), and treated with 1, 3, 10, 30 or 100 μM of CCG-222740 or CCG-203971 or 0.1% DMSO control for 24 hours. 20 μl of CellTiter 96 Aqueous one solution (Promega) were then added to each well containing the samples in 100 μl of culture medium. The plate was incubated for 1 hour at 37 °C and the absorbance was measured at 490 nm on a SpectraMax Plus 384 spectrophotometer (Molecular Devices, California, USA). Each experiment was carried out in triplicates for each condition and the experiment was repeated three times.

Data set [3] concerns rabbit conjunctival fibroblasts. Description: fibroblast-populated collagen contraction assay (rabbit). The settings on record: 7 days. Here is the method:
We screened two candidate MRTF/SRF pathway inhibitors, CCG-222740 and CCG-203971, using detached three-dimensional fibroblast-populated collagen gels[56], [57]. Human or rabbit conjunctival fibroblasts were seeded in a collagen Type I matrix (First Link UK Ltd, Birmingham, UK) at a concentration of 0.7 × 10^4 cells/ml. The fibroblast-populated collagen gel mixture was cast into the wells of MatTek dishes (MatTek Corp, MI, USA). The gels were detached from the edges of the well and 2 ml of growth medium were added to each well with 5, 25, 50, 75, or 100 μM of CCG-222740 or CCG-203971 or 0.1% DMSO control. Digital photographs were obtained daily and lattice areas were measured using Image J software (http://rsb.info.nih.gov/ij/). The gel size at day 7 was assessed as a percentage of lattice area on day 0. Each experiment was performed as triplicate gels per condition and the experiment was repeated on three separate days.

As usually defined, the cell viability is the share of living cells, or the viability signal relative to a control. A lower cell viability goes with a greater loss of cells. On to `O=C(Nc1ccc(Cl)cc1)C1CN(C(=O)c2cccc(-c3ccco3)c2)CC(F)(F)C1` (stereo not drawn) [CCG-222740], for which the “expression of MRTF/SRF target genes ACTA2 and CTGF, comparison” value in data set [1] is recorded as “more potent inhibitor of expression”. Besides, the cell viability in data set [2] (10 μM) stood at 100%; in data set [2] (30 μM) it was 88%; in data set [2] (100 μM), 85%. Also, the “cytotoxicity, comparison” value in data set [2] (human conjunctival fibroblasts) is on record as “less cytotoxic than CCG-203971”. Also, the “decrease of collagen matrix contraction, comparison” value in data set [3] was “more effective at decreasing collagen matrix contraction than CCG-203971”.

Source of the values: paper PMC5428058, “Local delivery of novel MRTF/SRF inhibitors prevents scar tissue formation in a preclinical model of fibrosis” (Scientific Reports, 2017).
